{"source": "paper PMC4620045", "about": "(Journal of pharmacokinetics and pharmacodynamics, 2015)", "key": {"[1]": {"format": "in vivo, BALB/c mice", "settings": "male, BALB/c, mouse, iv"}, "[2]": {"assay": "Global PBPK model fitted to mouse plasma and tissue PK data", "format": "in vivo, mice", "settings": "for Nonspecific binding (NSti): mice, model estimate"}, "[3]": {"settings": "Kidney (renal clearance CLr); fixed to reported GFR value in mice; cited from earlier work"}, "plasma proteins": {"system": "plasma proteins", "settings": "cited from earlier work"}, "[4]": {"settings": "monkeys; cited from earlier work"}, "[5]": {"system": "enzymes responsible for its elimination", "settings": "cited from earlier work"}}, "note": "Like-named read-outs stand apart in the source and are kept apart here.", "data": [{"smiles": "CC(C)C[C@H](NC(=O)[C@H](Cc1ccccc1)NC(=O)c1cnccn1)B(O)O", "note": "[Bortezomib]", "values": [{"measurement": "AUC(0-inf)", "setting": "[1]; bone, 0.25 mg/kg", "result": 23.7, "unit": "µM·h"}, {"measurement": "Kp", "setting": "[1]; bone, 0.25 mg/kg", "result": 26.9}, {"measurement": "half-life", "setting": "[1]; bone, 0.25 mg/kg", "result": 277, "unit": "h"}, {"measurement": "AUC(0-inf)", "setting": "[1]; bone, 1 mg/kg", "result": 27.2, "unit": "µM·h"}, {"measurement": "Kp", "setting": "[1]; bone, 1 mg/kg", "result": 1.4}, {"measurement": "half-life", "setting": "[1]; bone, 1 mg/kg", "result": 173, "unit": "h"}, {"measurement": "AUC(0-inf)", "setting": "[1]; kidney, 0.25 mg/kg", "result": 24.7, "unit": "µM·h"}, {"measurement": "half-life", "setting": "[1]; kidney, 0.25 mg/kg", "result": 59, "unit": "h"}, {"measurement": "AUC(0-inf)", "setting": "[1]; kidney, 1 mg/kg", "result": 180, "unit": "µM·h"}, {"measurement": "half-life", "setting": "[1]; kidney, 1 mg/kg", "result": 204, "unit": "h"}, {"measurement": "AUC(0-inf)", "setting": "[1]; liver, 0.25 mg/kg", "result": 17, "unit": "µM·h"}, {"measurement": "half-life", "setting": "[1]; liver, 0.25 mg/kg", "result": 69, "unit": "h"}, {"measurement": "AUC(0-inf)", "setting": "[1]; liver, 1 mg/kg", "result": 33.3, "unit": "µM·h"}, {"measurement": "half-life", "setting": "[1]; liver, 1 mg/kg", "result": 105, "unit": "h"}, {"measurement": "AUC(0-inf)", "setting": "[1]; lung, 0.25 mg/kg", "result": 39.3, "unit": "µM·h"}, {"measurement": "Kp", "setting": "[1]; lung, 0.25 mg/kg", "result": 44.7}, {"measurement": "half-life", "setting": "[1]; lung, 0.25 mg/kg", "result": 178, "unit": "h"}, {"measurement": "AUC(0-inf)", "setting": "[1]; lung, 1 mg/kg", "result": 60.9, "unit": "µM·h"}, {"measurement": "Kp", "setting": "[1]; lung, 1 mg/kg", "result": 3.1}, {"measurement": "half-life", "setting": "[1]; lung, 1 mg/kg", "result": 133, "unit": "h"}, {"measurement": "AUC(0-inf)", "setting": "[1]; muscle, 0.25 mg/kg", "result": 5.7, "unit": "µM·h"}, {"measurement": "Kp", "setting": "[1]; muscle, 0.25 mg/kg", "result": 6.4}, {"measurement": "half-life", "setting": "[1]; muscle, 0.25 mg/kg", "result": 204, "unit": "h"}, {"measurement": "AUC(0-inf)", "setting": "[1]; muscle, 1 mg/kg", "result": 17.3, "unit": "µM·h"}, {"measurement": "Kp", "setting": "[1]; muscle, 1 mg/kg", "result": 0.9}, {"measurement": "half-life", "setting": "[1]; muscle, 1 mg/kg", "result": 112, "unit": "h"}, {"measurement": "AUC(0-inf)", "setting": "[1]; plasma, 0.25 mg/kg", "result": 0.9, "unit": "µM·h"}, {"measurement": "Kp", "setting": "[1]; plasma, 0.25 mg/kg", "result": 1}, {"measurement": "half-life", "setting": "[1]; plasma, 0.25 mg/kg", "result": 96, "unit": "h"}, {"measurement": "AUC(0-inf)", "setting": "[1]; plasma, 1 mg/kg", "result": 19.4, "unit": "µM·h"}, {"measurement": "Kp", "setting": "[1]; plasma, 1 mg/kg", "result": 1}, {"measurement": "half-life", "setting": "[1]; plasma, 1 mg/kg", "result": 267, "unit": "h"}, {"measurement": "AUC(0-inf)", "setting": "[1]; spleen, 0.25 mg/kg", "result": 103, "unit": "µM·h"}, {"measurement": "Kp", "setting": "[1]; spleen, 0.25 mg/kg", "result": 117}, {"measurement": "half-life", "setting": "[1]; spleen, 0.25 mg/kg", "result": 248, "unit": "h"}, {"measurement": "AUC(0-inf)", "setting": "[1]; spleen, 1 mg/kg", "result": 107, "unit": "µM·h"}, {"measurement": "Kp", "setting": "[1]; spleen, 1 mg/kg", "result": 5.5}, {"measurement": "half-life", "setting": "[1]; spleen, 1 mg/kg", "result": 131, "unit": "h"}, {"measurement": "AUC(0-inf)", "setting": "[1]; whole blood, 0.25 mg/kg", "result": 46.4, "unit": "µM·h"}, {"measurement": "Kp", "setting": "[1]; whole blood, 0.25 mg/kg", "result": 52.8}, {"measurement": "half-life", "setting": "[1]; whole blood, 0.25 mg/kg", "result": 182, "unit": "h"}, {"measurement": "AUC(0-inf)", "setting": "[1]; whole blood, 1 mg/kg", "result": 92, "unit": "µM·h"}, {"measurement": "Kp", "setting": "[1]; whole blood, 1 mg/kg", "result": 4.8}, {"measurement": "half-life", "setting": "[1]; whole blood, 1 mg/kg", "result": 173, "unit": "h"}, {"measurement": "Nonspecific binding (NSti)", "setting": "[2]; Bone", "result": 1.06}, {"measurement": "Nonspecific binding (NSti)", "setting": "[2]; Erythrocyte", "result": 7.57}, {"measurement": "Nonspecific binding (NSti)", "setting": "[2]; Kidney", "result": 9.60}, {"measurement": "Nonspecific binding (NSti)", "setting": "[2]; Liver", "result": 1.54}, {"measurement": "Nonspecific binding (NSti)", "setting": "[2]; Lung", "result": 2.54}, {"measurement": "Nonspecific binding (NSti)", "setting": "[2]; Muscle", "result": 1.17}, {"measurement": "Nonspecific binding (NSti)", "setting": "[2]; Remainder compartment", "result": 96.76}, {"measurement": "Nonspecific binding (NSti)", "setting": "[2]; Spleen", "result": 3.68}, {"measurement": "clearance", "setting": "[2]; male, BALB/c, mouse, liver, intravenous", "result": 0.0063, "unit": "mL/min"}, {"measurement": "clearance", "setting": "[3]", "result": 0.28, "unit": "mL/min"}, {"measurement": "Plasma protein unbound fraction (fu)", "setting": "plasma proteins; fixed in PBPK model", "result": 0.17}, {"measurement": "Binding to plasma proteins", "setting": "plasma proteins; linear binding at therapeutic concentrations", "result": "approximately 83%"}, {"measurement": "Renal clearance contribution to elimination", "setting": "[4]", "result": "approximately 25%"}, {"measurement": "Induction or inhibition of enzymes responsible for its elimination", "setting": "[5]", "result": "not an inducer or inhibitor"}]}]}
